Converted amounts (≈) assume the structure as drawn. Bounds are passed on as bounds.

For the data set the following is noted: buffer; pH 7.4; 200.0 µM.
With `O=C(/C=C/c1cccs1)Nc1nccs1`, the kinetic solubility (usually the concentration staying in solution when a stock, usually in DMSO, is diluted into the medium) is 0.7 µg/mL (≈ 2.96 µM).
`NS(=O)(=O)c1cc(C(=O)OCC(=O)Nc2ccc3c(c2)OCO3)ccc1Cl` yielded a solubility (kinetic) of 16.9 µg/mL (≈ 40.9 µM).
`CCOC(=O)c1ccc(NC(=O)CCC(=O)NCc2ccco2)cc1` displayed a solubility (kinetic) of 4.7 µg/mL (≈ 13.6 µM).
For `CCn1c(=NC(=O)C2COc3ccccc3O2)sc2c(C)ccc(OC)c21` (stereo not drawn), the solubility (kinetic) is less than 0.4 µg/mL.
Regarding `CCC(Oc1ccccc1F)C(=O)Nc1ccc2c(c1)n(C)c(=O)n2C` (stereo not drawn), the solubility (kinetic) is 49 µg/mL (≈ 137 µM).
With `O=C(c1ccco1)N1CCN(C23CC4CC(CC(C4)C2)C3)CC1` the figure was greater than 47.2 µg/mL; with `O=C(Nc1cc(S(=O)(=O)N2CCOCC2)ccc1N1CCOCC1)c1ccccc1Cl`, greater than 69.9 µg/mL.
Compound `CN1CCN(C(=O)/C(=C\c2cccs2)NC(=O)c2ccccc2)CC1` came in with a solubility (kinetic) greater than 53.3 µg/mL.
In the case of `CCOc1ccccc1/C=C(\C#N)C(=O)NC1CC1` it was 31.3 µg/mL (≈ 122 µM); in that of `COc1ccccc1OCC(=O)Nc1ccc2c(c1)n(C)c(=O)n2C`, greater than 51.2 µg/mL; in that of `COc1ccc(OC)c(/C=C/c2c([N+](=O)[O-])c(=O)n(C)c(=O)n2C)c1`, 3.4 µg/mL (≈ 9.79 µM).
The compound `COc1ccc2[nH]c(C(=O)NCCN3CCOCC3)cc2c1` showed a solubility (kinetic) of 31.6 µg/mL (≈ 104 µM).
In the case of `O=C(COC(=O)C1CC1)NCCc1ccccc1` it was greater than 37.1 µg/mL; in that of `O=C(O)c1ccc(OCC(O)Cn2c3ccccc3c3ccccc32)cc1` (stereo not drawn), greater than 54.2 µg/mL.
Compound `Cc1ccccc1NC(=O)CC1SC(=Nc2ccc(O)cc2)NC1=O` (stereo not drawn) showed a solubility (kinetic) of 2 µg/mL (≈ 5.63 µM).
`Cc1ccc(NC(=O)c2ccc(Cl)cc2Cl)cc1O` yielded a solubility (kinetic) of 12 µg/mL (≈ 40.5 µM).
Consider `Cc1ccc(S(=O)(=O)Nc2ccc(F)cc2)cc1C(=O)N1CCOCC1`, for which the solubility (kinetic) is greater than 56.8 µg/mL.
`O=Cc1c[nH]c2ccc(C(=O)c3ccccc3)cc12` had a solubility (kinetic) of 4.3 µg/mL (≈ 17.3 µM).
As for `O=C(C1CCCO1)N1CCN(c2ccccn2)CC1` (stereo not drawn), the kinetic solubility was found to be 36.8 µg/mL (≈ 141 µM).
In the case of `O=C(O)c1cc(S(=O)(=O)N2CCCCC2)ccc1N1CCOCC1` it was greater than 53.2 µg/mL.
Compound `O=C(c1ccccc1)N1CCSc2sccc2C1=O` gave a kinetic solubility of 37.5 µg/mL (≈ 130 µM).
In the case of `COc1ccccc1CNc1cc(C)ccn1` it was 28.8 µg/mL (≈ 126 µM).
In the case of `CCC(=O)c1cn(CC(=O)Nc2ccc(C)cc2)c2ccccc12` it was less than 0.3 µg/mL; in that of `CCC(=O)N1CCN=C1SCc1cccc(C(F)(F)F)c1`, 40.8 µg/mL (≈ 129 µM); in that of `Cl.O=C(NCCN1CCOCC1)c1ccc(S(=O)(=O)Nc2ccccc2)cc1`, greater than 63.9 µg/mL.
In the case of `Cc1ccc(N(CC(=O)NCC2CCCO2)S(=O)(=O)c2ccc(Cl)cc2)cc1C` (stereo not drawn) it was 40.2 µg/mL (≈ 92 µM); in that of `COc1ccc(CNC(=O)COC(=O)c2cccs2)cc1`, 29.1 µg/mL (≈ 95.3 µM).
`CCOC(=O)c1c(C)n(C(C)C)c2ccc(OC)cc12` returned a solubility (kinetic) of 15.1 µg/mL (≈ 54.8 µM).
With `CC(=O)c1c(C)n(-c2ccc(C)cc2C)c2ccc(O)cc12`, the kinetic solubility is less than 0.6 µg/mL.
In the case of `COc1cccc(N2CC(O)Cn3c2nc2c3c(=O)[nH]c(=O)n2C)c1` (stereo not drawn) it was greater than 51.5 µg/mL; in that of `Cc1cc(C)c2c(-c3ccc(F)cc3)c(C#N)c(=O)n(C)c2n1`, 0.6 µg/mL (≈ 1.95 µM); in that of `COc1cccc(OC)c1C(=O)Nc1nc(-c2ccccc2)cs1`, 1.6 µg/mL (≈ 4.7 µM).
As to `CSc1nccc(NC(=O)c2ccc(C(C)(C)C)cc2)n1`, the kinetic solubility came to 4.2 µg/mL (≈ 13.9 µM).
With `O=C(CCC(=O)c1ccccc1)Nc1ccc(C(=O)O)cc1` the figure was greater than 44.6 µg/mL; with `Cc1ccc2nc(N3C(=O)CNC3=S)sc2c1`, 11.9 µg/mL (≈ 45.2 µM); with `O=C(Nc1ccc(F)cc1)c1cccnn1`, greater than 32.6 µg/mL.
Turning to `Cn1c(=O)c2[nH]c(-c3ccc(S(=O)(=O)O)cc3)nc2n(C)c1=O.O`, the solubility (kinetic) was greater than 53.2 µg/mL.
In the case of `COc1ccccc1N1CCN(Cc2nc3ccccc3[nH]2)CC1` it was 47.9 µg/mL (≈ 149 µM).
Compound `COc1ccccc1CCC(=O)NNC(=O)c1ccccc1` came in with a solubility (kinetic) greater than 44.8 µg/mL.
`O=c1c2cc([N+](=O)[O-])ccc2nc2n1CCCC2` gave a solubility (kinetic) greater than 36.8 µg/mL.
Take `CC(C)C(NC(=O)c1ccc(F)cc1)C(=O)N1CCC1` (stereo not drawn): the solubility (kinetic) was greater than 41.7 µg/mL.
In the case of `Cn1c(/C(C#N)=C(\O)c2cccc(F)c2)nc2ccccc21`, the solubility (kinetic) worked out at 0.3 µg/mL (≈ 1.02 µM).
`COc1ccc(-c2noc(-c3ccoc3C)n2)cc1OC`: the kinetic solubility was found to be 0.8 µg/mL (≈ 2.79 µM).
With `Cc1cccc(-n2c(C)cc(C(=S)N3CCOCC3)c2C)c1C` the figure was 28.2 µg/mL (≈ 85.8 µM); with `CC(=O)Nc1ccc(S(=O)(=O)Nc2nc(C)nc3sc(C)c(C)c23)cc1`, greater than 58.6 µg/mL; with `Clc1ccc(OCCNCCc2ccccc2)cc1.O=C(O)C(=O)O`, greater than 54.9 µg/mL.
Turning to `CCn1c(Oc2ccc(F)cc2)nc2c1c(=O)n(C)c(=O)n2C`, the kinetic solubility is greater than 47.7 µg/mL.
In the case of `COc1cccc2cc(C(=O)NCCN3CCOCC3)c(=O)oc12` it was greater than 49.9 µg/mL; in that of `CC(C)CC(=O)N1CCN(C(=O)c2ccco2)CC1`, greater than 39.6 µg/mL; in that of `O=[N+]([O-])c1cccc(CSc2ncnc3ccccc23)c1`, 2 µg/mL (≈ 6.73 µM).
With `Cc1ccc(CNC(=O)CNC(=O)c2ccco2)cc1` the figure was greater than 40.8 µg/mL; with `CC(C(=O)NCc1cccnc1)c1ccc([N+](=O)[O-])cc1` (stereo not drawn), greater than 42.8 µg/mL.
`CCN1CCN(C(=O)c2[nH]c3ccc(OC)cc3c2C)CC1` gave a kinetic solubility greater than 45.2 µg/mL.
Consider `COc1cccc(NC(=O)COC(=O)/C=C/c2ccco2)c1`, for which the kinetic solubility is 30.5 µg/mL (≈ 101 µM).
Turning to `Brc1ccc(OCc2cn3ccccc3n2)cc1`, the solubility (kinetic) turned out to be 5.3 µg/mL (≈ 17.5 µM).
`CC(NCc1ccccc1O)c1ccccc1` (stereo not drawn) yielded a kinetic solubility greater than 34.1 µg/mL.
Compound `N#Cc1ccccc1OCC(=O)NC(=O)NCc1ccco1` returned a kinetic solubility of 7.4 µg/mL (≈ 24.7 µM).
The compound `O=C(CC(c1ccccc1)c1ccccc1)Nc1ccc(O)cc1` came in with a solubility (kinetic) of 31.7 µg/mL (≈ 99.9 µM).
In the case of `COc1ccc(NC(=O)C(=S)N2CCCC2)cc1` it was greater than 39.7 µg/mL; in that of `CCCN(CC1CC1)C(=S)NC(=O)C1CC1`, greater than 36.1 µg/mL.
Compound `CCOC(=O)Cc1csc(NC(=O)c2cccc([N+](=O)[O-])c2)n1` yielded a kinetic solubility greater than 50.3 µg/mL.
`CC1CCCCC12NC(=O)N(CC(=O)N1CCc3ccccc31)C2=O` (stereo not drawn) had a solubility (kinetic) of 3.7 µg/mL (≈ 10.8 µM).
Consider `O=C(O)c1cc2nccc(-c3ccco3)n2n1`, for which the kinetic solubility is greater than 34.4 µg/mL.
In turn, `Cc1cc(C(=O)Nc2ccc(OCc3ccccc3)cc2)c(C)o1` yielded a solubility (kinetic) of less than 0.7 µg/mL.
In the case of `COc1ccc(S(=O)(=O)N2CCCC2)cc1C(=O)O` it was greater than 42.8 µg/mL; in that of `CNc1oc(/C=C/c2cccc(OC)c2)nc1C#N`, 3.7 µg/mL (≈ 14.5 µM); in that of `O=C1[C@@H]2C(c3cccnc3)=NO[C@@H]2C(=O)N1c1ccc2ccccc2c1`, 43 µg/mL (≈ 125 µM).
With `O=C(/C=C1\SC(=O)NC1=O)Nc1ccc(C(=O)O)cc1` the figure was greater than 43.8 µg/mL; with `CCCCn1c(N)c(N(CCOC)C(=O)c2ccc3c(c2)C(=O)N(c2ccccc2Cl)C3=O)c(=O)[nH]c1=O`, greater than 81 µg/mL; with `CN(C)CCSc1nc(-c2ccccc2)nc2c1CCCC2`, 17.9 µg/mL (≈ 57.1 µM).
Consider `O=C(Nc1ccc(Oc2ccsc2C(=O)O)cc1)c1ccccc1`, for which the kinetic solubility was greater than 50.9 µg/mL.
As to `CCCCCC(=O)Oc1cccc(N2C(=O)C3CCCCC3C2=O)c1` (stereo not drawn), the solubility (kinetic) was found to be 4.3 µg/mL (≈ 12.5 µM).
Compound `O=C1CSC(c2ccccc2F)N1` (stereo not drawn) gave a kinetic solubility greater than 29.6 µg/mL.

These data come from PubChem BioAssay AID1996.
